Values after ≈ are worked out from the molar mass of the structure shown. Where two headings read alike, the source gives them in different places. Blank lines part the entries; values can stand above or below the compound they belong to.
Experiments:
Type in all cases: cell-based
Rhinovirus 50 = assay: Antiviral spectrum against rhinovirus serotypes (C.P.E. inhibition); details: Enterovirus; virus strain Rhinovirus 50
Protocol: (§1) Eine Suspension von HeLa-Zellen (6 x 10^4) wurde mit Rhinovirus HGP (3 x 10^3 Plaque-bildende Einheiten, PFU) gemischt und auf eine Mikrotestplatte gebracht, die die zu testenden Verbindungen in zunehmender Verdünnung enthielten. Die Zellen wurden dann in Eagle's Minimalnährlösung, die 2% Kalbsserum, 1% Tryptosephosphatbrühe, 100 ug/ml Streptomycin und 20 Einheiten/ml Penicillin G enthielt, kultiviert. Der virale zytopathogenische Effekt (C.P.E.) und die Cytotoxizität wurden mikroskopisch nach 2 Tagen Kultivierung bei 33°C beobachtet. Die antivirale Aktivität (IC50) der Testverbindungen ist diejenige Konzentration,.bei der C.P.E. um 50% gegenüber der Kontrollkultur gehemmt war. Die Cytotoxizität ist als Minimalkonzentration angegeben, bei der toxische Symptome beobachtet wurden.(cytotoxische Dosis).
(§2) Weiterhin sind die antiviralen Spektren von 1-(4-Ethoxy-2-hydroxy-6-methoxyphenyl)-3-(4-methoxyphenyl)-1-propanon (Verbindung A) und 4-Ethoxy-2-hydroxy-6-methoxy-N-(p-methoxybenzyl)benzamid (Verbindung B) gegen verschiedene Serotypen von Rhinoviren in Tabelle 2. angegeben.

Rhinovirus 24 = assay: as above; details: Enterovirus; virus strain Rhinovirus 24
Protocol: as §1, §2

Rhinovirus 21 = assay: as above; details: Enterovirus; virus strain Rhinovirus 21
Protocol: as §1, §2

Rhinovirus 9 = assay: as above; details: Enterovirus; virus strain Rhinovirus 9
Protocol: as §1, §2

Rhinovirus 46 = assay: as above; details: Enterovirus; virus strain Rhinovirus 46
Protocol: as §1, §2

Rhinovirus 1A = assay: as above; details: Enterovirus; virus strain Rhinovirus 1A
Protocol: as §1, §2

Rhinovirus 39 = assay: as above; details: Enterovirus; virus strain Rhinovirus 39
Protocol: as §1, §2

Rhinovirus 2 = assay: as above; details: Enterovirus; virus strain Rhinovirus 2
Protocol: as §1, §2

Rhinovirus 31 = assay: as above; details: Enterovirus; virus strain Rhinovirus 31
Protocol: as §1, §2

Rhinovirus 25 = assay: as above; details: Enterovirus; virus strain Rhinovirus 25
Protocol: as §1, §2

Rhinovirus 14 = assay: as above; details: Enterovirus; virus strain Rhinovirus 14
Protocol: as §1, §2

Rhinovirus 23 = assay: as above; details: Enterovirus; virus strain Rhinovirus 23
Protocol: as §1, §2

Rhinovirus 1B = assay: as above; details: Enterovirus; virus strain Rhinovirus 1B
Protocol: as §1, §2

Rhinovirus HGP = assay: Antiviral activity: inhibition of viral cytopathogenic effect (C.P.E.) in HeLa cell culture; details: for IC50: Enterovirus, HeLa, 48 h; for antivirale Aktivität: qualitative statement in the description, no virus named
Protocol: as §1

[1] = Cytotoxicity in HeLa cells, observed microscopically in the antiviral test; details: human, hela cells; minimal concentration at which toxic symptoms were observed (cytotoxische Dosis); 2 days at 33°C; read-out: Cytotoxizität
Protocol: as §1

[2] = Cytotoxic dose inhibiting HeLa cell growth; details: human, hela cells; footnote of Tabelle 2; read-out: cytotoxischen Dosen, die HeLa-Zellwachstum hemmen
Rhinovirus 16 = assay: Antiviral spectrum against rhinovirus serotypes (C.P.E. inhibition); details: Enterovirus; virus strain Rhinovirus 16
Protocol: as §1, §2

Rhinovirus 47 = assay: as above; details: Enterovirus; virus strain Rhinovirus 47
Protocol: as §1, §2

Rhinovirus 44 = assay: as above; details: Enterovirus; virus strain Rhinovirus 44
Protocol: as §1, §2

Rhinovirus 30 = assay: as above; details: Enterovirus; virus strain Rhinovirus 30
Protocol: as §1, §2

Rhinovirus 36 = assay: as above; details: Enterovirus; virus strain Rhinovirus 36
Protocol: as §1, §2

Rhinovirus 55 = assay: as above; details: Enterovirus; virus strain Rhinovirus 55
Protocol: as §1, §2

Rhinovirus 32 = assay: as above; details: Enterovirus; virus strain Rhinovirus 32
Protocol: as §1, §2

HeLa-Zellen = assay: Cytotoxicity in HeLa cells, observed microscopically in the antiviral test; details: minimal concentration at which toxic symptoms were observed (cytotoxische Dosis); 2 days at 33°C
Protocol: as §1

[3] = concentration inhibiting C.P.E. by 50% versus control culture, HeLa cells, 2 days at 33°C, read-out: IC50

SMILES: CCOc1cc(O)c(C(=O)CCc2ccc(OC)cc2)c(OC)c1 [1-(4-Ethoxy-2-hydroxy-6-methoxyphenyl)-3-(4-methoxyphenyl)-1-propanon]
IC50 (Rhinovirus 50): 0.004 to 0.012 µg/mL (≈ 0.0121 to 0.0363 µM)
IC50 (Rhinovirus 24): 0.01 to 0.03 µg/mL (≈ 0.0303 to 0.0908 µM)
IC50 (Rhinovirus 21): < 0.001 µg/mL
IC50 (Rhinovirus 9): 0.012 to 0.037 µg/mL (≈ 0.0363 to 0.112 µM)
IC50 (Rhinovirus 46): 0.037 to 0.11 µg/mL (≈ 0.112 to 0.333 µM)
IC50 (Rhinovirus 1A): 0.03 to 0.09 µg/mL (≈ 0.0908 to 0.272 µM)
IC50 (Rhinovirus 39): 0.012 to 0.037 µg/mL (≈ 0.0363 to 0.112 µM)
IC50 (Rhinovirus 2): 0.001 µg/mL (≈ 0.00303 µM)
IC50 (Rhinovirus 31): 0.03 to 0.09 µg/mL (≈ 0.0908 to 0.272 µM)
IC50 (Rhinovirus 25): 0.01 to 0.09 µg/mL (≈ 0.0303 to 0.272 µM)
IC50 (Rhinovirus 14): 0.1 to 0.3 µg/mL (≈ 0.303 to 0.908 µM)
IC50 (Rhinovirus 23): 0.004 µg/mL (≈ 0.0121 µM)
IC50 (Rhinovirus 1B): 0.03 to 0.09 µg/mL (≈ 0.0908 to 0.272 µM)
IC50 (Rhinovirus HGP; [3]): 0.002 µg/mL (≈ 0.00605 µM)
antivirale Aktivität (Rhinovirus HGP): besonders starke antivirale Aktivität
MCC at 48 h [1]: > 8 µg/mL
MCC [2]: 60 µg/mL

SMILES: CCOc1cc(O)c(C(=O)NCc2ccc(OC)cc2)c(OC)c1 [4-Ethoxy-2-hydroxy-6-methoxy-N-(p-methoxybenzyl)benzamid]
IC50 (Rhinovirus 16): 0.003 µg/mL (≈ 0.00905 µM)
IC50 (Rhinovirus 50): 0.01 µg/mL (≈ 0.0302 µM)
IC50 (Rhinovirus 47): 0.003 µg/mL (≈ 0.00905 µM)
IC50 (Rhinovirus 21): < 0.001 µg/mL
IC50 (Rhinovirus 9): 0.003 µg/mL (≈ 0.00905 µM)
IC50 (Rhinovirus 44): 0.003 µg/mL (≈ 0.00905 µM)
IC50 (Rhinovirus 1A): 0.009 to 0.027 µg/mL (≈ 0.0272 to 0.0815 µM)
IC50 (Rhinovirus 39): 0.003 µg/mL (≈ 0.00905 µM)
IC50 (Rhinovirus 2): 0.001 µg/mL (≈ 0.00302 µM)
IC50 (Rhinovirus 30): 0.001 to 0.003 µg/mL (≈ 0.00302 to 0.00905 µM)
IC50 (Rhinovirus 36): 0.009 to 0.027 µg/mL (≈ 0.0272 to 0.0815 µM)
IC50 (Rhinovirus 31): 0.081 to 0.24 µg/mL (≈ 0.244 to 0.724 µM)
IC50 (Rhinovirus 55): 0.009 µg/mL (≈ 0.0272 µM)
IC50 (Rhinovirus 14): 0.009 to 0.027 µg/mL (≈ 0.0272 to 0.0815 µM)
IC50 (Rhinovirus 1B): 0.003 to 0.009 µg/mL (≈ 0.00905 to 0.0272 µM)
IC50 (Rhinovirus 32): 0.003 to 0.009 µg/mL (≈ 0.00905 to 0.0272 µM)
IC50 (Rhinovirus HGP; [3]): 0.002 µg/mL (≈ 0.00604 µM)
antivirale Aktivität (Rhinovirus HGP): besonders starke antivirale Aktivität
MCC at 48 h [1]: > 10 µg/mL
MCC [2]: 40 µg/mL

SMILES: CCOc1cc(OC)c(C(=O)CCc2ccc(OC)cc2)c(OP(=O)(O)O)c1 [5-Ethoxy-3-methoxy-2-[3-(4-methoxyphenyl)propionyl]phenyldihydrogenphosphat]
IC50 (Rhinovirus HGP): 0.3 to 0.8 µg/mL (≈ 0.731 to 1.95 µM)
MCC at 48 h [1]: > 10 µg/mL

SMILES: CCOc1cc(OC)c(C(=O)NCc2ccc(OC)cc2)c(OP(=O)([O-])[O-])c1.[Na+].[Na+] [Dinatrium 2-[(p-Anisylamino)carbonyl]-5-ethoxy-3-methoxyphenyl-phosphat]
IC50 (Rhinovirus HGP): 0.01 to 0.03 µg/mL
antivirale Aktivität (Rhinovirus HGP): besonders starke antivirale Aktivität
Cytotoxizität (HeLa-Zellen): >8 µg/mL

SMILES: CCCOc1cc(OC)c(C(=O)NCc2ccc(OC)cc2)c(OP(=O)([O-])[O-])c1.[Na+].[Na+] [Dinatrium 2-[(p-anisylamino)carbonyl]-3-methoxy-5-propoxyphenylphosphat]
IC50 (Rhinovirus HGP): 0.01 to 0.02 µg/mL
antivirale Aktivität (Rhinovirus HGP): besonders starke antivirale Aktivität
MCC at 48 h [1]: > 200 µg/mL

SMILES: CCOc1cc(OC)c(C(=O)CCc2ccc(OC)cc2)c(OP(=O)([O-])[O-])c1.[Na+].[Na+] [Dinatrium 5-ethoxy-3-methoxy-2-[3-(4-methoxyphenyl)-propionyl]phenylphosphat]
IC50 (Rhinovirus HGP): 0.03 to 0.1 µg/mL
Cytotoxizität (HeLa-Zellen): >10 µg/mL

SMILES: CCCCOc1ccc(CNC(=O)c2c(O)cc(OC)cc2OC)cc1 [N-(p-Butoxybenzyl)-2-hydroxy--4,6-dimethoxybenzamid]
IC50 (Rhinovirus HGP; [3]): 0.3 µg/mL (≈ 0.835 µM)
MCC at 48 h [1]: 8 µg/mL

Continued, in another order:

IC50 (Rhinovirus HGP; [3]): 0.002 µg/mL (≈ 0.00497 µM)
SMILES: CCOC(=O)Oc1cc(OCC)cc(OC)c1C(=O)CCc1ccc(OC)cc1 [5-Ethoxy-3-methoxy-2-[3-(4-methoxyphenyl)propionyl]-phenyl-ethylcarbonat]
antivirale Aktivität (Rhinovirus HGP): besonders starke antivirale Aktivität
MCC at 48 h [1]: 8 µg/mL

IC50 (Rhinovirus HGP; [3]): 0.01 µg/mL (≈ 0.023 µM)
SMILES: CCOc1cc(OC)c(C(=O)CCc2ccc(OC)cc2)c(OC(=O)c2ccccc2)c1 [5-Ethoxy-3-methoxy-2-[3-(4-methoxyphenyl)propionyl]phenyl-benzoat]
MCC at 48 h [1]: > 8 µg/mL

IC50 (Rhinovirus HGP; [3]): 0.9 µg/mL (≈ 1.51 µM)
SMILES: CCCCCCCCCCCCCCCCCC(=O)Oc1cc(OCC)cc(OC)c1C(=O)CCc1ccc(OC)cc1 [5-Ethoxy-3-methoxy-2-[3-(4-methoxyphenyl)propionyl]phenyl-octadecanoat]
MCC at 48 h [1]: > 8 µg/mL

IC50 (Rhinovirus HGP; [3]): 2.7 µg/mL (≈ 5.48 µM)
SMILES: CCOc1cc(OC)c(C(=O)CCc2ccc(OC)cc2)c(O[C@@H]2O[C@H](CO)[C@@H](O)[C@H](O)[C@H]2O)c1 [5-Ethoxy-3-methoxy-2-[3-(4-methoxyphenyl)propionyl]phenyl-ß-D-glucopyranosid]
MCC at 48 h [1]: > 10 µg/mL

IC50 (Rhinovirus HGP; [3]): 0.01 to 0.03 µg/mL (≈ 0.0311 to 0.0932 µM)
SMILES: COc1cc(O)c(C(=O)NCc2ccc(Cl)cc2)c(OC)c1 [N-(p-Chlorobenzyl)-2-hydroxy--4,6-dimethoxybenzamid]
MCC at 48 h [1]: > 2.4 µg/mL

IC50 (Rhinovirus HGP; [3]): 0.03 to 0.1 µg/mL (≈ 0.104 to 0.348 µM)
SMILES: COc1cc(O)c(C(=O)NCc2ccccc2)c(OC)c1 [N-Benzyl-2-hydroxy-4,6-dimethoxy-benzamid]
MCC at 48 h [1]: > 8 µg/mL

IC50 (Rhinovirus HGP; [3]): 0.03 to 0.1 µg/mL (≈ 0.108 to 0.361 µM)
SMILES: COc1cc(O)c(C(=O)NCc2ccco2)c(OC)c1 [N-Furfuryl-2-hydroxy-4,6--dimethoxybenzamid]
MCC at 48 h [1]: > 8 µg/mL

IC50 (Rhinovirus HGP; [3]): 0.01 µg/mL (≈ 0.0291 µM)
SMILES: C=CCOc1ccc(CNC(=O)c2c(O)cc(OC)cc2OC)cc1 [N-[p-(Allyloxy)benzyl]-2-hydroxy-4,6-dimethoxybenzamid]
MCC at 48 h [1]: 8 µg/mL

IC50 (Rhinovirus HGP; [3]): 0.3 to 0.9 µg/mL (≈ 0.763 to 2.29 µM)
SMILES: COc1cc(O)c(C(=O)NCc2ccc(OCc3ccccc3)cc2)c(OC)c1 [N-[p-(Benzyloxy)benzyl]-2--hydroxy-4,6-dimethoxybenzamid]
MCC at 48 h [1]: > 8 µg/mL

IC50 (Rhinovirus HGP; [3]): 0.01 µg/mL (≈ 0.0303 µM)
SMILES: COc1cc(O)c(C(=O)NCc2ccc(N(C)C)cc2)c(OC)c1 [N-[p-(Dimethylamino)benzyl]-2--hydroxy-4,6-dimethoxybenzamid]
MCC at 48 h [1]: > 8 µg/mL
